Assay results as given in EP1152011A1, “PEPTIDES INHIBITING VASCULAR ENDOTHELIAL CELL MIGRATION” (KYOWA HAKKO KOGYO CO., LTD., priority 1999, dated 2000).
Residues, ends and D or L forms follow the SMILES beside them.

These compounds were tested on Swine aorta endothelial cells (assay: Measurement of activity inhibiting swine vascular endothelial cell migration). Conditions: test compound at 10 µmol/L; 6 hours pre-culture, cells scraped off with razor blade, then 24 hours culture; 0.1% bovine serum albumin-containing Dulbecco's modified Eagle medium; value ± SD.
Type: cell-based
From the text: Measurement of activity inhibiting swine vascular endothelial cell migration: Swine aorta endothelial cells (5th to 7th generations) were suspended in the 10% fetus calf serum-containing Dulbecco's modified Eagle medium and inoculated at a cell density of 32,000 cells/cm^2 in a 6-well plate, for culturing until the cells formed a single layer over the whole bottom of the culture dish. Subsequently, the culture broth was exchanged to the 0.1% bovine serum albumin-containing Dulbecco's modified Eagle medium containing a test compound at a concentration of 10 µmol/L, followed by culturing for 6 hours. Then, a part of the cells on the bottom of the culture dish was scraped off using a razor blade. Subsequently, the culture broth was exchanged to the 0.1% bovine serum albumin-containing Dulbecco's modified Eagle medium containing a test compound in a concentration of 10 µmol/L, followed by culturing for 24 hours. After immobilizing the cells, the number of the cells which had migrated on the bottom portion of the culture dish, where a part of the cells had been scraped off, was counted. The inhibition ratio of cell migration was calculated by the following equation. Inhibition ratio of cell migration (%) = (1 - the number of cells which had migrated in the presence of the test compound/the number of cells which had migrated in the absence of the test compound) × 100 [formula]

SMILES	Inhibition ratio of cell migration (%) ± SD [%]
CC[C@H](C)[C@H](NC(=O)[C@H](CO)NC(=O)[C@H](C)NC(=O)[C@@H]1CCCN1C(=O)[C@H](CO)NC(=O)[C@H](Cc1c[nH]c2ccccc12)NC(=O)[C@@H](NC(=O)[C@@H](NC(=O)[C@H](Cc1c[nH]c2ccccc12)NC(=O)[C@H](CCC(=O)O)NC(=O)[C@H](CO)NC(=O)[C@@H](N)CCSC)[C@@H](C)CC)[C@@H](C)O)C(=O)N[C@@H](CO)C(=O)N[C@@H](C)C(=O)NCC(N)=O [Compound 1, H-Met-Ser-Glu-Trp-Ile-Thr-Trp-Ser-Pro-Ala-Ser-Ile-Ser-Ala-Gly-NH2] (H-MSEWITWSPASISAG-NH2)	24.5±4.9
CC(C)C[C@H](NC(=O)[C@H](CO)NC(=O)[C@@H](N)CC(C)C)C(=O)N[C@@H](Cc1c[nH]c2ccccc12)C(=O)N[C@@H](CO)C(=O)N[C@@H](CCC(=O)O)C(=O)N[C@@H](Cc1c[nH]c2ccccc12)C(=O)N[C@@H](CO)C(=O)N[C@@H](CC(=O)O)C(=O)N[C@@H](C)C(=O)N[C@@H](CO)C(=O)N[C@H](C(=O)N[C@H](C(=O)N[C@@H](C)C(=O)NCC(N)=O)[C@@H](C)O)C(C)C [Compound 2, H-Leu-Ser-Leu-Trp-Ser-Glu-Trp-Ser-Asp-Ala-Ser-Val-Thr-Ala-Gly-NH2] (H-LSLWSEWSDASVTAG-NH2)	41.5±2.1
C[C@H](NC(=O)[C@H](C)NC(=O)[C@H](CO)NC(=O)[C@H](Cc1c[nH]c2ccccc12)NC(=O)[C@@H]1CCCN1C(=O)[C@H](CO)NC(=O)[C@H](Cc1c[nH]c2ccccc12)NC(=O)[C@H](CC(N)=O)NC(=O)[C@H](CO)NC(=O)[C@@H](N)Cc1ccc(O)cc1)C(=O)N[C@@H](CO)C(=O)N[C@@H](CO)C(=O)N[C@@H](CO)C(=O)N[C@H](C(=O)N[C@@H](C)C(=O)N[C@@H](CC(=O)O)C(N)=O)[C@@H](C)O [Compound 3, H-Tyr-Ser-Asn-Trp-Ser-Pro-Trp-Ser-Ala-Ala-Ser-Ser-Ser-Thr-Ala-Asp-NH2] (H-YSNWSPWSAASSSTAD-NH2)	12.3±10.0
CSCC[C@H](N)C(=O)N[C@H](C(=O)N[C@@H](CCC(=O)O)C(=O)N[C@@H](Cc1c[nH]c2ccccc12)C(=O)NCC(=O)N[C@@H](CCC(=O)O)C(=O)N[C@@H](Cc1c[nH]c2ccccc12)C(=O)N[C@@H](CC(=O)O)C(=O)N[C@@H](CCC(=O)O)C(=O)N[C@@H](C)C(=O)N[C@@H](CO)C(=O)N[C@@H](C)C(=O)N[C@H](C(=O)N[C@@H](C)C(=O)NCC(N)=O)[C@@H](C)O)[C@@H](C)O [Compound 4, H-Met-Thr-Glu-Trp-Gly-Glu-Trp-Asp-Glu-Ala-Ser-Ala-Thr-Ala-Gly-NH2] (H-MTEWGEWDEASATAG-NH2)	7.4±13.2
CC(C)C[C@H](N)C(=O)N[C@H](C(=O)N[C@@H](CCC(=O)O)C(=O)N[C@@H](Cc1c[nH]c2ccccc12)C(=O)N[C@@H](CO)C(=O)N[C@@H](CCC(N)=O)C(=O)N[C@@H](Cc1c[nH]c2ccccc12)C(=O)N[C@@H](CO)C(=O)N[C@@H](CCC(=O)O)C(=O)N[C@@H](C)C(=O)N[C@@H](CC(N)=O)C(=O)N[C@@H](CCCCN)C(=O)N[C@@H](CO)C(=O)N[C@@H](C)C(=O)NCC(N)=O)[C@@H](C)O [Compound 5, H-Leu-Thr-Glu-Trp-Ser-Gln-Trp-Ser-Glu-Ala-Asn-Lys-Ser-Ala-Gly-NH2] (H-LTEWSQWSEANKSAG-NH2)	10.8±6.0
CSCC[C@H](N)C(=O)N[C@@H](CCCNC(=N)N)C(=O)N1CCC[C@H]1C(=O)N[C@@H](Cc1c[nH]c2ccccc12)C(=O)N[C@H](C(=O)N[C@@H](C)C(=O)N[C@@H](Cc1c[nH]c2ccccc12)C(=O)N[C@@H](CO)C(=O)N[C@@H](CCC(=O)O)C(=O)N[C@@H](C)C(=O)N[C@H](C(=O)N[C@@H](CCCCN)C(=O)N[C@@H](CC(C)C)C(=O)N[C@@H](C)C(=O)NCC(N)=O)[C@@H](C)O)[C@@H](C)O [Compound 6, H-Met-Arg-Pro-Trp-Thr-Ala-Trp-Ser-Glu-Ala-Thr-Lys-Leu-Ala-Gly-NH2] (H-MRPWTAWSEATKLAG-NH2)	5.7±8.0
CSCC[C@H](NC(=O)[C@H](CCCNC(=N)N)NC(=O)[C@H](CCCCN)NC(=O)CNC(=O)[C@H](CCCCN)NC(=O)[C@@H](N)CC(=O)O)C(=O)N[C@@H](CCCNC(=N)N)C(=O)N[C@@H](CCC(N)=O)C(=O)N[C@@H](CCCNC(=N)N)C(=O)N[C@@H](CCSC)C(=O)N[C@@H](CC(C)C)C(=O)N[C@@H](CCCCN)C(=O)N[C@@H](C)C(=O)N[C@@H](CCC(N)=O)C(=O)N[C@@H](CC(C)C)C(N)=O [Compound 7, H-Asp-Lys-Gly-Lys-Arg-Met-Arg-Gln-Arg-Met-Leu-Lys-Ala-Gln-Leu-NH2] (H-DKGKRMRQRMLKAQL-NH2)	9.3±1.6
CC[C@H](C)[C@H](NC(=O)[C@H](CCSC)NC(=O)[C@H](CCCNC(=N)N)NC(=O)[C@H](Cc1c[nH]cn1)NC(=O)[C@H](CCCNC(=N)N)NC(=O)[C@H](CCCCN)NC(=O)[C@H](CCCCN)NC(=O)[C@@H](N)CCSC)C(=O)N[C@@H](CCCCN)C(=O)N[C@@H](CCSC)C(=O)N[C@@H](CC(N)=O)C(=O)N1CCC[C@H]1C(=O)N[C@@H](C)C(=O)N[C@@H](CC(=O)O)C(=O)NCC(N)=O [Compound 8, H-Met-Lys-Lys-Arg-His-Arg-Met-Ile-Lys-Met-Asn-Pro-Ala-Asp-Gly-NH2] (H-MKKRHRMIKMNPADG-NH2)	7.2±1.2
CC[C@H](C)[C@H](NC(=O)[C@H](CCSC)NC(=O)[C@H](CCCNC(=N)N)NC(=O)[C@@H](NC(=O)[C@H](CCCNC(=N)N)NC(=O)[C@@H](NC(=O)[C@@H](NC(=O)[C@H](Cc1c[nH]cn1)NC(=O)CNC(=O)[C@H](CCCCN)NC(=O)CN)C(C)C)[C@@H](C)CC)[C@@H](C)O)C(=O)N[C@@H](CCC(N)=O)C(=O)N[C@@H](CCSC)C(=O)N[C@@H](CCC(=O)O)C(N)=O [Compound 9, H-Gly-Lys-Gly-His-Val-Ile-Arg-Thr-Arg-Met-Ile-Gln-Met-Glu-NH2] (H-GKGHVIRTRMIQME-NH2)	3.9±1.6
CC[C@H](C)[C@H](NC(=O)[C@H](CCCNC(=N)N)NC(=O)[C@H](C)NC(=O)[C@H](CCCCN)NC(=O)[C@H](CCCCN)NC(=O)[C@H](CCCNC(=N)N)NC(=O)[C@H](CCC(N)=O)NC(=O)[C@@H](NC(=O)[C@@H](NC(=O)[C@H](CCC(=O)O)NC(=O)[C@@H]1CCCN1C(=O)[C@H](C)NC(=O)[C@@H]1CCCN1)[C@@H](C)O)C(C)C)C(=O)N[C@@H](CCCNC(=N)N)C(=O)N[C@@H](CCCCN)C(N)=O [Compound 10, H-Pro-Ala-Pro-Glu-Thr-Val-Gln-Arg-Lys-Lys-Ala-Arg-Ile-Arg-Lys-NH2] (H-PAPETVQRKKARIRK-NH2)	20.6±1.9
CSCC[C@H](NC(=O)[C@H](Cc1ccc(O)cc1)NC(=O)[C@@H](N)CCCNC(=N)N)C(=O)N[C@H](C(=O)N[C@H](C(=O)N[C@@H](CCCCN)C(=O)N[C@@H](CCCCN)C(=O)N[C@@H](CCCNC(=N)N)C(=O)N[C@@H](Cc1ccccc1)C(=O)N[C@@H](CCCCN)C(=O)N[C@@H](CO)C(=O)N[C@@H](CO)C(=O)N[C@@H](CCC(N)=O)C(=O)N[C@@H](Cc1ccccc1)C(=O)N[C@H](C(N)=O)[C@@H](C)O)C(C)C)[C@@H](C)O [Compound 11, H-Arg-Tyr-Met-Thr-Val-Lys-Lys-Arg-Phe-Lys-Ser-Ser-Gln-Phe-Thr-NH2] (H-RYMTVKKRFKSSQFT-NH2)	12.2±10.7
